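Dose response: 5 concentrations. Exposure: 48 h. Format: 96-well plates. Endpoint: linear interpolation; highest concentration if not reached. TGI marks complete inhibition of growth.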
How the values were obtained:
Experiment in all cases: DTP human tumour cell line panel, 48 h
K-562 leukemia = tested on: K-562 leukemia
HL-60(TB) leukemia = tested on: HL-60(TB) leukemia
CAKI-1 renal = tested on: CAKI-1 renal
SF-539 CNS = tested on: SF-539 CNS
COLO 205 colon = tested on: COLO 205 colon
SR leukemia = tested on: SR leukemia
MOLT-4 leukemia = tested on: MOLT-4 leukemia
PC-3 prostate = tested on: PC-3 prostate
NCI/ADR-RES ovarian = tested on: NCI/ADR-RES ovarian
SK-MEL-5 melanoma = tested on: SK-MEL-5 melanoma
NCI-H460 lung = tested on: NCI-H460 lung
M14 melanoma = tested on: M14 melanoma
MALME-3M melanoma = tested on: MALME-3M melanoma
HS 578T breast = tested on: HS 578T breast
MDA-N = tested on: MDA-N
HCT-15 colon = tested on: HCT-15 colon
786-0 renal = tested on: 786-0 renal
KM12 colon = tested on: KM12 colon
HOP-92 NSCLC = tested on: HOP-92 NSCLC
EKVX NSCLC = tested on: EKVX NSCLC
MDA-MB-435 = tested on: MDA-MB-435
NCI-H23 lung = tested on: NCI-H23 lung
SN12C renal = tested on: SN12C renal
HOP-62 NSCLC = tested on: HOP-62 NSCLC
UO-31 renal = tested on: UO-31 renal
SNB-19 CNS = tested on: SNB-19 CNS
SK-OV-3 ovarian = tested on: SK-OV-3 ovarian
OVCAR-8 ovarian = tested on: OVCAR-8 ovarian
SK-MEL-28 melanoma = tested on: SK-MEL-28 melanoma
BT-549 breast = tested on: BT-549 breast
ACHN renal = tested on: ACHN renal
T-47D breast = tested on: T-47D breast
OVCAR-4 ovarian = tested on: OVCAR-4 ovarian
MDA-MB-231 breast = tested on: MDA-MB-231 breast
A498 renal = tested on: A498 renal
NCI-H522 lung = tested on: NCI-H522 lung
RPMI-8226 leukemia = tested on: RPMI-8226 leukemia
SK-MEL-2 melanoma = tested on: SK-MEL-2 melanoma
OVCAR-3 ovarian = tested on: OVCAR-3 ovarian
UACC-257 melanoma = tested on: UACC-257 melanoma
U251 CNS = tested on: U251 CNS
HT29 colon = tested on: HT29 colon
A549 NSCLC = tested on: A549 NSCLC
OVCAR-5 ovarian = tested on: OVCAR-5 ovarian
IGROV1 ovarian = tested on: IGROV1 ovarian
TK-10 renal = tested on: TK-10 renal
DU-145 prostate = tested on: DU-145 prostate
SF-295 CNS = tested on: SF-295 CNS
SNB-75 CNS = tested on: SNB-75 CNS
SW-620 colon = tested on: SW-620 colon
UACC-62 melanoma = tested on: UACC-62 melanoma
LOX IMVI melanoma = tested on: LOX IMVI melanoma
SF-268 CNS = tested on: SF-268 CNS
HCT-116 colon = tested on: HCT-116 colon
HCC-2998 colon = tested on: HCC-2998 colon
MCF7 breast = tested on: MCF7 breast
RXF 393 renal = tested on: RXF 393 renal
CCRF-CEM leukemia = tested on: CCRF-CEM leukemia

With O=c1nc(N2CCCCC2)sc2[nH]c3ccccc3c12 the TGI (K-562 leukemia) was > 100 µM, the TGI (HL-60(TB) leukemia) was > 100 µM and the TGI (CAKI-1 renal) was > 100 µM. The TGI (SF-539 CNS) was > 100 µM, the TGI (COLO 205 colon) was > 100 µM and the TGI (SR leukemia) was > 100 µM. The TGI (MOLT-4 leukemia) was > 100 µM, the TGI (PC-3 prostate) was > 100 µM and the TGI (NCI/ADR-RES ovarian) was 25.7 µM. For the same compound, the TGI (SK-MEL-5 melanoma) was > 100 µM, the TGI (NCI-H460 lung) was > 100 µM and the TGI (M14 melanoma) was > 100 µM. For the same compound, the TGI (MALME-3M melanoma) was > 100 µM, the TGI (HS 578T breast) was > 100 µM and the TGI (MDA-N) was > 100 µM. For the same compound, the TGI (HCT-15 colon) was > 100 µM, the TGI (786-0 renal) was > 100 µM and the TGI (KM12 colon) was > 100 µM. The TGI (HOP-92 NSCLC) was > 100 µM, the TGI (EKVX NSCLC) was > 100 µM and the TGI (MDA-MB-435) was > 100 µM. For the same compound, the TGI (NCI-H23 lung) was 26.2 µM, the TGI (SN12C renal) was > 100 µM and the TGI (HOP-62 NSCLC) was > 100 µM. For the same compound, the TGI (UO-31 renal) was 54.9 µM, the TGI (SNB-19 CNS) was > 100 µM and the TGI (SK-OV-3 ovarian) was > 100 µM. For the same compound, the TGI (OVCAR-8 ovarian) was > 100 µM, the TGI (SK-MEL-28 melanoma) was > 100 µM and the TGI (BT-549 breast) was > 100 µM. The TGI (ACHN renal) was > 100 µM, the TGI (T-47D breast) was > 100 µM and the TGI (OVCAR-4 ovarian) was > 100 µM. For the same compound, the TGI (MDA-MB-231 breast) was > 100 µM, the TGI (A498 renal) was > 100 µM and the TGI (NCI-H522 lung) was > 100 µM. The TGI (RPMI-8226 leukemia) was > 100 µM, the TGI (SK-MEL-2 melanoma) was > 100 µM and the TGI (OVCAR-3 ovarian) was > 100 µM. The TGI (UACC-257 melanoma) was > 100 µM, the TGI (U251 CNS) was > 100 µM and the TGI (HT29 colon) was > 100 µM. For the same compound, the TGI (A549 NSCLC) was > 100 µM, the TGI (OVCAR-5 ovarian) was 24.8 µM and the TGI (IGROV1 ovarian) was > 100 µM. The TGI (TK-10 renal) was > 100 µM, the TGI (DU-145 prostate) was > 100 µM and the TGI (SF-295 CNS) was > 100 µM. For the same compound, the TGI (SNB-75 CNS) was > 100 µM, the TGI (SW-620 colon) was > 100 µM and the TGI (UACC-62 melanoma) was > 100 µM. For the same compound, the TGI (LOX IMVI melanoma) was > 100 µM and the TGI (SF-268 CNS) was > 100 µM.
O=C(Cn1c2ccc(Br)cc2c2nc3ccccc3nc21)NNC(=O)NC1CCCCC1 was tested, and the TGI (K-562 leukemia) was > 100 µM, the TGI (CAKI-1 renal) was > 100 µM and the TGI (SF-539 CNS) was > 100 µM. The TGI (COLO 205 colon) was > 100 µM, the TGI (HCT-116 colon) was > 100 µM and the TGI (SR leukemia) was > 100 µM. The TGI (MOLT-4 leukemia) was 67.1 µM, the TGI (PC-3 prostate) was > 100 µM and the TGI (SK-MEL-5 melanoma) was > 100 µM. The TGI (NCI-H460 lung) was > 100 µM, the TGI (M14 melanoma) was > 100 µM and the TGI (MALME-3M melanoma) was > 100 µM. For the same compound, the TGI (HS 578T breast) was > 100 µM, the TGI (MDA-N) was > 100 µM and the TGI (786-0 renal) was > 100 µM. The TGI (KM12 colon) was > 100 µM, the TGI (HCC-2998 colon) was > 100 µM and the TGI (EKVX NSCLC) was > 100 µM. For the same compound, the TGI (MDA-MB-435) was > 100 µM, the TGI (NCI-H23 lung) was > 100 µM and the TGI (SN12C renal) was > 100 µM. For the same compound, the TGI (HOP-62 NSCLC) was 78.8 µM, the TGI (UO-31 renal) was 8.09 µM and the TGI (SNB-19 CNS) was > 100 µM. The TGI (SK-OV-3 ovarian) was > 100 µM, the TGI (OVCAR-8 ovarian) was > 100 µM and the TGI (SK-MEL-28 melanoma) was > 100 µM. The TGI (BT-549 breast) was > 100 µM, the TGI (ACHN renal) was > 100 µM and the TGI (T-47D breast) was > 100 µM. The TGI (OVCAR-4 ovarian) was 42.9 µM, the TGI (MDA-MB-231 breast) was > 100 µM and the TGI (A498 renal) was > 100 µM. The TGI (MCF7 breast) was > 100 µM, the TGI (NCI-H522 lung) was > 100 µM and the TGI (RPMI-8226 leukemia) was > 100 µM. The TGI (SK-MEL-2 melanoma) was > 100 µM, the TGI (OVCAR-3 ovarian) was > 100 µM and the TGI (UACC-257 melanoma) was > 100 µM. For the same compound, the TGI (U251 CNS) was > 100 µM, the TGI (A549 NSCLC) was 41.7 µM and the TGI (OVCAR-5 ovarian) was > 100 µM. For the same compound, the TGI (TK-10 renal) was > 100 µM, the TGI (DU-145 prostate) was 86 µM and the TGI (SF-295 CNS) was > 100 µM. The TGI (SNB-75 CNS) was 73.5 µM, the TGI (RXF 393 renal) was > 100 µM and the TGI (SW-620 colon) was > 100 µM. The TGI (UACC-62 melanoma) was > 100 µM, the TGI (CCRF-CEM leukemia) was 76.1 µM and the TGI (LOX IMVI melanoma) was > 100 µM. The TGI (SF-268 CNS) was > 100 µM.
In the case of O=C(CC(O)(C(F)(F)F)C(F)(F)F)c1cccs1, the TGI (K-562 leukemia) is reported as > 10 µM, the TGI (HL-60(TB) leukemia) is reported as > 10 µM and the TGI (CAKI-1 renal) is reported as > 10 µM. The TGI (SF-539 CNS) was > 10 µM, the TGI (COLO 205 colon) was > 10 µM and the TGI (HCT-116 colon) was > 10 µM. The TGI (SR leukemia) was > 10 µM, the TGI (MOLT-4 leukemia) was > 10 µM and the TGI (PC-3 prostate) was > 10 µM. The TGI (NCI/ADR-RES ovarian) was > 10 µM, the TGI (SK-MEL-5 melanoma) was > 10 µM and the TGI (M14 melanoma) was > 10 µM. For the same compound, the TGI (MALME-3M melanoma) was > 10 µM, the TGI (HS 578T breast) was > 10 µM and the TGI (MDA-N) was > 10 µM. The TGI (HCT-15 colon) was > 10 µM, the TGI (786-0 renal) was > 10 µM and the TGI (KM12 colon) was > 10 µM. For the same compound, the TGI (HCC-2998 colon) was > 10 µM, the TGI (HOP-92 NSCLC) was > 10 µM and the TGI (MDA-MB-435) was > 10 µM. The TGI (NCI-H23 lung) was > 10 µM, the TGI (SN12C renal) was > 10 µM and the TGI (HOP-62 NSCLC) was > 10 µM. For the same compound, the TGI (SNB-19 CNS) was > 10 µM, the TGI (SK-OV-3 ovarian) was > 10 µM and the TGI (OVCAR-8 ovarian) was > 10 µM. The TGI (SK-MEL-28 melanoma) was > 10 µM, the TGI (BT-549 breast) was > 10 µM and the TGI (ACHN renal) was > 10 µM. The TGI (T-47D breast) was > 10 µM, the TGI (OVCAR-4 ovarian) was > 10 µM and the TGI (MDA-MB-231 breast) was > 10 µM. The TGI (MCF7 breast) was > 10 µM, the TGI (NCI-H522 lung) was > 10 µM and the TGI (RPMI-8226 leukemia) was > 10 µM. For the same compound, the TGI (OVCAR-3 ovarian) was > 10 µM, the TGI (UACC-257 melanoma) was > 10 µM and the TGI (U251 CNS) was > 10 µM. For the same compound, the TGI (HT29 colon) was > 10 µM, the TGI (A549 NSCLC) was > 10 µM and the TGI (IGROV1 ovarian) was > 10 µM. The TGI (TK-10 renal) was > 10 µM, the TGI (DU-145 prostate) was > 10 µM and the TGI (SF-295 CNS) was > 10 µM. For the same compound, the TGI (SNB-75 CNS) was > 10 µM, the TGI (SW-620 colon) was > 10 µM and the TGI (UACC-62 melanoma) was > 10 µM. For the same compound, the TGI (CCRF-CEM leukemia) was > 10 µM, the TGI (LOX IMVI melanoma) was > 10 µM and the TGI (SF-268 CNS) was > 10 µM.

Source: PubChem BioAssay (NCI)
